Laboratory results reported in the kinase profiling compilation of Christmann-Franck et al. (2016).

Tests used:
Settings in all cases: compound 1.0 µM
KDR (human) = KDR (human) (UniProt P35968)
PRKACA (human) = PRKACA (human) (UniProt P17612)
MAPKAPK2 (human) = MAPKAPK2 (human) (UniProt P49137)
PRKCB1 (human) = PRKCB1 (human) (UniProt P05771)
ABL1 (human) = ABL1 (human) (UniProt P00519)
CHEK1 (human) = CHEK1 (human) (UniProt O14757)
CSNK2A1 (human) = CSNK2A1 (human) (UniProt P68400)
GSK3B (human) = GSK3B (human) (UniProt P49841)
TAOK3 (human) = TAOK3 (human) (UniProt Q9H2K8)
ROCK1 (human) = ROCK1 (human) (UniProt Q13464)
MST4 (human) = MST4 (human) (UniProt Q9P289)
MET (human) = MET (human) (UniProt P08581)
INSR (human) = INSR (human) (UniProt P06213)
IKBKE (human) = IKBKE (human) (UniProt Q14164)
IKBKB (human) = IKBKB (human) (UniProt O14920)
AKT1 (human) = AKT1 (human) (UniProt P31749)
NTRK1 (human) = NTRK1 (human) (UniProt P04629)
LCK (human) = LCK (human) (UniProt P06239)
SRC (human) = SRC (human) (UniProt P12931)
PDPK1 (human) = PDPK1 (human) (UniProt O15530)
CDK2 (human) = CDK2 (human) (UniProt P24941)
PAK4 (human) = PAK4 (human) (UniProt O96013)
FGFR1 (human) = FGFR1 (human) (UniProt P11362)
MAPK1 (human) = MAPK1 (human) (UniProt P28482)
AURKA (human) = AURKA (human) (UniProt O14965)
MAPK14 (human) = MAPK14 (human) (UniProt Q16539)
EGFR (human) = EGFR (human) (UniProt P00533)

PRKCB1 (human), sequence (P05771 whole entry, looked up): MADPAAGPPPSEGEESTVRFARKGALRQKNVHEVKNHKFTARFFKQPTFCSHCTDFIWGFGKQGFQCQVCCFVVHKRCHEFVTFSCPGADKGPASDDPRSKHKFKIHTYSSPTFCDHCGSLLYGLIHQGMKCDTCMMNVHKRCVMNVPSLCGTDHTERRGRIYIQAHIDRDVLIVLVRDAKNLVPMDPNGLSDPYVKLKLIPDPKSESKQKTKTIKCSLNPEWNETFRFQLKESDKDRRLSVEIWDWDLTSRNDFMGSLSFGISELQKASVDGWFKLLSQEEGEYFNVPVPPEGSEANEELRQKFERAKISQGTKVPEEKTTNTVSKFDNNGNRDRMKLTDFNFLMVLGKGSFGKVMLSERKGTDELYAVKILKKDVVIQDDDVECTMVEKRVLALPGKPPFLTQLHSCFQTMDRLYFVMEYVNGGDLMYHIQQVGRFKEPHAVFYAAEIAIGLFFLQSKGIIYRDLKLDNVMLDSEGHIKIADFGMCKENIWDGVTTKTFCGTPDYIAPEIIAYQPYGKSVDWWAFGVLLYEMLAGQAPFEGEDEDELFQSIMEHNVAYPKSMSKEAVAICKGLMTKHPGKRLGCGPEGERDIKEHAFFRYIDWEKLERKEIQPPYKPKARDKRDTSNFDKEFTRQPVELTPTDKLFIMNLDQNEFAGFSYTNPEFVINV
KDR (human), sequence (P35968 whole entry, looked up): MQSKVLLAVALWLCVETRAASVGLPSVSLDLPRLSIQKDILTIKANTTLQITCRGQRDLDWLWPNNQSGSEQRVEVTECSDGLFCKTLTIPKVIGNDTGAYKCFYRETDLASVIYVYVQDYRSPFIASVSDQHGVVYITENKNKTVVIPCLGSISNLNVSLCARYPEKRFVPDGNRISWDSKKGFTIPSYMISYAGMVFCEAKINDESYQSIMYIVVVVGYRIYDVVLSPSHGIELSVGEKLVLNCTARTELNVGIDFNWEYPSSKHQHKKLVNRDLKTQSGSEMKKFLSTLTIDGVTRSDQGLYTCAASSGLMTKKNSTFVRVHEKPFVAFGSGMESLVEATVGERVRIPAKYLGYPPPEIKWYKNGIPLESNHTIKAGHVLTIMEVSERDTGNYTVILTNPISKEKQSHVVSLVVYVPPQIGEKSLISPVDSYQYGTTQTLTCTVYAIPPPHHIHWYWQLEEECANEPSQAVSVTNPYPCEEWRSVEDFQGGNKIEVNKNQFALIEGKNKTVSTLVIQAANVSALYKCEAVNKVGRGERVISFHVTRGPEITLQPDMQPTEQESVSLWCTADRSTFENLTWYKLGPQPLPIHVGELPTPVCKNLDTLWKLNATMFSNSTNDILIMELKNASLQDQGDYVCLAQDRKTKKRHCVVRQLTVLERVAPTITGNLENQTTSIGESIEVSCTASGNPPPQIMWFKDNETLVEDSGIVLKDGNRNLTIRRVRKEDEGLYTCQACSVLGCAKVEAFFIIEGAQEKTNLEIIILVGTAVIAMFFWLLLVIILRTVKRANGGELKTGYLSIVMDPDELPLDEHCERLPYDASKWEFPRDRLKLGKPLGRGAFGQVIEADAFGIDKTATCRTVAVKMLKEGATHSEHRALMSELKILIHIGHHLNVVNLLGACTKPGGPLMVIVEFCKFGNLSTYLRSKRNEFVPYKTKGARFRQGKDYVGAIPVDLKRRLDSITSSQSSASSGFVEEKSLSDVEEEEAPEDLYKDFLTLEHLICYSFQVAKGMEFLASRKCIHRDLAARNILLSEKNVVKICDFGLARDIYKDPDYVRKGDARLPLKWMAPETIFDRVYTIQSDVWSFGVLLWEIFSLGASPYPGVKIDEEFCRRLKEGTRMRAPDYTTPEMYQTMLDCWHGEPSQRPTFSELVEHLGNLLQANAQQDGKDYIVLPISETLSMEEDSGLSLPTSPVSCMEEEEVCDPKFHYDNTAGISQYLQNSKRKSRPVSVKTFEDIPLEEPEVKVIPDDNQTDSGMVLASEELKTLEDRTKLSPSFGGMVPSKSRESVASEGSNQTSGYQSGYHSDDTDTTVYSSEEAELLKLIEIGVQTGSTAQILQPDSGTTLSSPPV
CHEK1 (human), sequence (O14757 whole entry, looked up): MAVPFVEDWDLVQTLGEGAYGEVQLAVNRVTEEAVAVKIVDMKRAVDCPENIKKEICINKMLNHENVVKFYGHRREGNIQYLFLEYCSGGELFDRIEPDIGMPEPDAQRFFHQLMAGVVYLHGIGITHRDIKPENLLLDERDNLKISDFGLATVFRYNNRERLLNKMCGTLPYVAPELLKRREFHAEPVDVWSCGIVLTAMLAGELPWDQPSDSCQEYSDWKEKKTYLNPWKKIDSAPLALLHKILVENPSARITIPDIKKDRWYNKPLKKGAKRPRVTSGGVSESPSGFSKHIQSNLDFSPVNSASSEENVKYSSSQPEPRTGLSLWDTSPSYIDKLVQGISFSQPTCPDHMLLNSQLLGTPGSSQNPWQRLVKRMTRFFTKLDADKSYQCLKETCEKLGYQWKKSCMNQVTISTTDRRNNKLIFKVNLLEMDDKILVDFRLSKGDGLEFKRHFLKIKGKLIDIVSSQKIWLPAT
MAPK1 (human), sequence (P28482 whole entry, looked up): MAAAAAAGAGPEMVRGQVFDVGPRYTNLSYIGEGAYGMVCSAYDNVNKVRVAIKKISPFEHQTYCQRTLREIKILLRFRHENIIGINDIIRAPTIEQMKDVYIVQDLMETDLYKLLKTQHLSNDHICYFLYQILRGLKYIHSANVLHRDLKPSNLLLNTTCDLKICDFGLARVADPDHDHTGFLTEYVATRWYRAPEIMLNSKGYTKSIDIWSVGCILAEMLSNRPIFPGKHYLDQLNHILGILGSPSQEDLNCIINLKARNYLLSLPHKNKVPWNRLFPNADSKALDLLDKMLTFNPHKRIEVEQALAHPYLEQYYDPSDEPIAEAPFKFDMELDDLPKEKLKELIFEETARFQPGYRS
SRC (human), sequence (P12931 whole entry, looked up): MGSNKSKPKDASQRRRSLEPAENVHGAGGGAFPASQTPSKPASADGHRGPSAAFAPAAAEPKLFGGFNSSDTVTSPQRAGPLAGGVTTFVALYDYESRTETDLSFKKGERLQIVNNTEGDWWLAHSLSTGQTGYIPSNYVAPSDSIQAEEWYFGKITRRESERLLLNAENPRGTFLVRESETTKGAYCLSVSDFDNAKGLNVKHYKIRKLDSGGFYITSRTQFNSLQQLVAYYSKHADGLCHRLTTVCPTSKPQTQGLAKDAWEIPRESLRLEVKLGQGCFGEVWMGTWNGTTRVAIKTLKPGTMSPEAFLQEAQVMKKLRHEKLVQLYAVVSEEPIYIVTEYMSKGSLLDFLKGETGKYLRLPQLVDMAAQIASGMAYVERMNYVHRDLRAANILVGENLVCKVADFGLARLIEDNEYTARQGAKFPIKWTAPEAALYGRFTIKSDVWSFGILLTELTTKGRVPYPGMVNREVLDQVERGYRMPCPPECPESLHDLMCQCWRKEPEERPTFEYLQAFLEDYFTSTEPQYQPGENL
FGFR1 (human), sequence (P11362 whole entry, looked up): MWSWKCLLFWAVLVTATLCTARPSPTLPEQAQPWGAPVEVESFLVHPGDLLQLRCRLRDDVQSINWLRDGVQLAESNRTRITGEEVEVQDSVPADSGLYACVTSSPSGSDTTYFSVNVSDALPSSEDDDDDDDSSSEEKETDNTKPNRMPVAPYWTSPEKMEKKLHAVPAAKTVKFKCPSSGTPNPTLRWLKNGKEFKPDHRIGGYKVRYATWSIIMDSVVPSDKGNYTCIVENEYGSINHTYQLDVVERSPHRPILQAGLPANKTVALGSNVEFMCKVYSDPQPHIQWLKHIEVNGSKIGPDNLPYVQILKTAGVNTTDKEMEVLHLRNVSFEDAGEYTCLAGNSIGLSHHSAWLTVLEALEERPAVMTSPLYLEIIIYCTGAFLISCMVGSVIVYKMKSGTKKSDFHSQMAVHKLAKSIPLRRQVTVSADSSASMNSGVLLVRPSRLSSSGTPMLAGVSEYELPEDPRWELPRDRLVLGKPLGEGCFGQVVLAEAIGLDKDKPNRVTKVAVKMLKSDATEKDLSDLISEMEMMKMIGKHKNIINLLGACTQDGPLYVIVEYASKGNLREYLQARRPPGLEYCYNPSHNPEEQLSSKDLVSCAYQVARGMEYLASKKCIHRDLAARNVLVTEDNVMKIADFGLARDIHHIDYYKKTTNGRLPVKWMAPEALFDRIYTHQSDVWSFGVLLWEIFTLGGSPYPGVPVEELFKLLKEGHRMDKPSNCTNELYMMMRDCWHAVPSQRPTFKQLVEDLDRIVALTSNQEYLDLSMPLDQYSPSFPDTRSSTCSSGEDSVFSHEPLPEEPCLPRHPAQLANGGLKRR
CSNK2A1 (human), sequence (P68400 whole entry, looked up): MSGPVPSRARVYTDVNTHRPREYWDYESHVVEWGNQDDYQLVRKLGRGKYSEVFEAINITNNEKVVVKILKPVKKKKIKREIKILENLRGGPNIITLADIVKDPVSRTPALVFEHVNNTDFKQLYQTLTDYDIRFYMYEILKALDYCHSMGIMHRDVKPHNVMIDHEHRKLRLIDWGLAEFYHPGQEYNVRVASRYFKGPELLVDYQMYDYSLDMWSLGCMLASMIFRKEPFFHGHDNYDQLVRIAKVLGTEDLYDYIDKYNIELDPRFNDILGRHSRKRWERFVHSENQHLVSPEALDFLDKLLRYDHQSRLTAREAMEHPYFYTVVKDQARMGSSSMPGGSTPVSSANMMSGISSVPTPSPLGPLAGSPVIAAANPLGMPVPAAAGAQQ
GSK3B (human), sequence (P49841 whole entry, looked up): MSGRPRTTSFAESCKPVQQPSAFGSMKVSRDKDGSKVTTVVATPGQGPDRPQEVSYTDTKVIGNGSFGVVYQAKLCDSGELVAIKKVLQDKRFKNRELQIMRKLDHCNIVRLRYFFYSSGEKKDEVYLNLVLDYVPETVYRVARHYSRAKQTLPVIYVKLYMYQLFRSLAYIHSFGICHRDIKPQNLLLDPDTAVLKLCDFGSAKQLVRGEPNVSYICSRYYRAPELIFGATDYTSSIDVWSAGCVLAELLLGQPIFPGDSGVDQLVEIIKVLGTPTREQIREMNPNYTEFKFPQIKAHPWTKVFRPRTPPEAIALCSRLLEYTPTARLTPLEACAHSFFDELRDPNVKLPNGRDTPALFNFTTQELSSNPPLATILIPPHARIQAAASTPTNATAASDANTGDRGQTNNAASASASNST

SMILES	inhibition (KDR (human)) [%]	inhibition (PRKACA (human)) [%]	inhibition (MAPKAPK2 (human)) [%]	inhibition (PRKCB1 (human)) [%]	inhibition (ABL1 (human)) [%]	inhibition (CHEK1 (human)) [%]	inhibition (CSNK2A1 (human)) [%]	inhibition (GSK3B (human)) [%]	inhibition (TAOK3 (human)) [%]	inhibition (ROCK1 (human)) [%]	inhibition (MST4 (human)) [%]	inhibition (MET (human)) [%]	inhibition (IKBKE (human)) [%]	inhibition (IKBKB (human)) [%]	inhibition (AKT1 (human)) [%]	inhibition (SRC (human)) [%]	inhibition (PDPK1 (human)) [%]	inhibition (FGFR1 (human)) [%]	inhibition (MAPK1 (human)) [%]	inhibition (AURKA (human)) [%]	further results
CS(=O)c1ccc(-c2nc(-c3ccc(F)cc3)c(-c3ccncc3)[nH]2)cc1 (stereo not given)	13.5	18.4	0	23.6	3.15	0	0	52.6	15.7	4.88	0	0	0	0	0.56	16.6	0	0	11.7	0	inhibition (INSR (human)): 0.995%; inhibition (NTRK1 (human)): 4.44%; inhibition (LCK (human)): 7.1%; inhibition (CDK2 (human)): 0%; inhibition (PAK4 (human)): 6.86%
CS(=O)(=O)CCNCc1ccc(-c2ccc3ncnc(Nc4ccc(OCc5cccc(F)c5)c(Cl)c4)c3c2)o1	0	0	0	0	0	0	0	0	0	0	0	0	0	0	0	0	0	0	0	0	inhibition (INSR (human)): 0%; inhibition (NTRK1 (human)): 0%; inhibition (LCK (human)): 0%; inhibition (CDK2 (human)): 0%; inhibition (PAK4 (human)): 0%; inhibition (MAPK14 (human)): 0%
C#Cc1cccc(Nc2ncnc3cc(OCCOC)c(OCCOC)cc23)c1	63.6	0.1	0	27.9	80.6	0	0	13.6	0	0	18.7	19.4	6.5	6.5	11.1	36.7	0	0	2.3	39.1	inhibition (INSR (human)): 3.4%; inhibition (NTRK1 (human)): 18.5%; inhibition (CDK2 (human)): 0%; inhibition (PAK4 (human)): 5.7%; inhibition (MAPK14 (human)): 0%
O=C1NCCc2[nH]c(-c3ccnc(-c4ccccc4F)c3)cc21	11.9	4.3	73.7	0	0	1.8	20.5	3.4	33.8	5.4	10	30.4	0	0	3.5	9.9	0	0	11.7	0	inhibition (LCK (human)): 0%; inhibition (CDK2 (human)): 7%; inhibition (PAK4 (human)): 4.1%; inhibition (MAPK14 (human)): 6.7%
O=S(=O)(c1cccc2cnccc12)N1CCCNCC1	4	–	0	5.6	0	0	0	0	0	86.1	3.5	0	0	0	16	0.9	0	0	1.5	4.4	inhibition (INSR (human)): 1.9%; inhibition (NTRK1 (human)): 0.9%; inhibition (LCK (human)): 0%; inhibition (CDK2 (human)): 0%; inhibition (MAPK14 (human)): 0.9%

Now from value to molecule, other results behind:

inhibition (KDR (human)) [%]	inhibition (PRKACA (human)) [%]	inhibition (MAPKAPK2 (human)) [%]	inhibition (PRKCB1 (human)) [%]	inhibition (ABL1 (human)) [%]	inhibition (CHEK1 (human)) [%]	inhibition (CSNK2A1 (human)) [%]	inhibition (GSK3B (human)) [%]	inhibition (TAOK3 (human)) [%]	inhibition (ROCK1 (human)) [%]	inhibition (MST4 (human)) [%]	inhibition (MET (human)) [%]	inhibition (IKBKE (human)) [%]	inhibition (IKBKB (human)) [%]	inhibition (AKT1 (human)) [%]	inhibition (SRC (human)) [%]	inhibition (PDPK1 (human)) [%]	inhibition (FGFR1 (human)) [%]	inhibition (MAPK1 (human)) [%]	inhibition (AURKA (human)) [%]	SMILES	further results
70.6	29.2	0.2	17.5	82.9	0	1	2.8	17.4	2.8	14.8	11.3	3.9	4.4	10.6	93.4	0	50.1	6.6	8.8	Cc1ccc(-c2nn(C(C)(C)C)c3ncnc(N)c23)cc1	inhibition (NTRK1 (human)): 49.8%; inhibition (LCK (human)): 94.5%; inhibition (CDK2 (human)): 2.5%; inhibition (PAK4 (human)): 5.3%; inhibition (MAPK14 (human)): 33.7%
1.35	5.58	0	8.46	8.86	0	1.93	0	3.7	0	0	0	0.63	0	0	4.9	0	0	0	0	CC[C@@H](CO)Nc1nc(NCc2ccccc2)c2ncn(C(C)C)c2n1	inhibition (INSR (human)): 1.28%; inhibition (NTRK1 (human)): 3.46%; inhibition (LCK (human)): 0%; inhibition (PAK4 (human)): 2.92%; inhibition (EGFR (human)): 5.07%; inhibition (MAPK14 (human)): 5.04%
